Measured values published in patent publication US20210395239A1 (Hoffmann-La Roche Inc., priority 2018, published 2021).

Experiments:
hTLR9 = molecular target: T1, hTLR9 (Homo sapiens, UniProt Q9NR96); design: host or cells: HEK; conditions: data disclosed in US20150105370; read-out: HEK/hTLR9 IC50; cited from earlier work
T1 sequence (Q9NR96 26-1032): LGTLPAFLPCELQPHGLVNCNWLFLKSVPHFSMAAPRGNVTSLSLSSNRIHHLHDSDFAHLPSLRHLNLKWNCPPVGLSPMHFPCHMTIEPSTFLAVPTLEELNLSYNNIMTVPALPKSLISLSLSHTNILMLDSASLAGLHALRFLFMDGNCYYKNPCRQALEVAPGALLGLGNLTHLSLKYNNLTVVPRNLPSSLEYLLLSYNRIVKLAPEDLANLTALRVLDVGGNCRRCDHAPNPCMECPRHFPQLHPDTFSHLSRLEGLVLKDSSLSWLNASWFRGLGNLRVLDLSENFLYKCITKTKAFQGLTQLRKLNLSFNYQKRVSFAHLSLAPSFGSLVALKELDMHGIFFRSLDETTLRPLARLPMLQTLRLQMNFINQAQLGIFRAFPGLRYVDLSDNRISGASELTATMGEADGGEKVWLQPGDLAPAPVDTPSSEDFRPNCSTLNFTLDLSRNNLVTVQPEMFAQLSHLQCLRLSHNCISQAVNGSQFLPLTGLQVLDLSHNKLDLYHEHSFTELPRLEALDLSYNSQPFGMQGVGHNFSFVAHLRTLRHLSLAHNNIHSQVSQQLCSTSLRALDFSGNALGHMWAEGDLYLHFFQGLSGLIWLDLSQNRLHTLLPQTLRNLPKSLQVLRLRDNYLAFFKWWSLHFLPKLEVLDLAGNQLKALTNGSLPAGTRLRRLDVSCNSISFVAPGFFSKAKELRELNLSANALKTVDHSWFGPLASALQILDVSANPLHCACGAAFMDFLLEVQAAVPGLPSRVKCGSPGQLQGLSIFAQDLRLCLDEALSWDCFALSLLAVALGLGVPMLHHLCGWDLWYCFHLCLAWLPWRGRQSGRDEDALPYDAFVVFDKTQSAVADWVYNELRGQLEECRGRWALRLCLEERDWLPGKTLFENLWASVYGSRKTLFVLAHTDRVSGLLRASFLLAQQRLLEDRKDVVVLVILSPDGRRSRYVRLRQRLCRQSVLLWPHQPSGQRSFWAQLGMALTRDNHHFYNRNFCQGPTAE

CYP3A4 = molecular target: T2, CYP3A4 (Homo sapiens, UniProt P08684); experiment: CYP inhibition assay in human liver microsome, CYP3A4; type: in vitro ADME; conditions: human, human liver microsomes, probe midazolam 5 μM, substrate midazolam 5 μM, third value of 2C9/2D6/3A4
T2 construct: tissue BD-Gentest 452117; host or cells: human liver microsomes
Method: (§1) This is a high throughput screening assay used for assessment of reversible inhibition of CYP2C9, CYP2D6, and CYP3A4 activity of test compounds in human liver microsome (HLM) in early discovery stage.
(§2) 10 mM DMSO stock solutions of test compounds were diluted in DMSO to generate 2 mM intermediate stock solution. 250 nL, of intermediate stock solution were transferred in duplicate into 3 separate 384 well microtitre plates (assay-ready plates). A mixture of HLM and each substrate was made up. 45 μL of HLM substrate mix was then transferred to each well of an assay ready plate and mixed. The negative (solvent) and positive controls (standard inhibitor for each CYP) were included in each assay ready plate. The assay ready plate was warmed to 37° C. in an incubator over 10 minutes. 5 μL pre-warmed NADPH regenerating system was added to each incubation well to start the reaction. Final incubation volume was 50 μL. The assay plate then was placed back in the 37° C. incubator. After incubation (10 minutes for CYP2D6) for 5 minutes, incubates were quenched by addition of 50 μL 100% acetonitrile containing internal standards (400 ng/mL 13C6-4′-OH-Diclofenac, 20 ng/mL D3-Dextrorphan and 20 ng/mL D4-1′OH-Midazolam). The supernatants were collected for RapidFire/MS/MS analysis.
(§3) RapidFire online solid phase extraction/sample injection system (Agilent) coupled with API4000 triple quadrupole mass spectrometer (AB Sciex) were used for sample analysis. The mobile phase composed of acetonitrile and water supplemented with 0.1% formic acid. A C4 solid phase extraction cartridge is used for sample separation. MS detection is achieved in positive ion MRM mode.
(§4) Peak areas for substrate, metabolite and internal standard are determined using the RapidFire integrator software (version 3.6.12009.12296). Peak area ratios (PAR) of metabolite and internal standard (stable-labelled metabolite) are then calculated. The measurement window for each experiment is then defined:
(§5) PAR (0% activity)=average PAR for all incubations containing concentrated inhibitor; Par (100% activity)=average PAR for all incubations containing no inhibitor (DMSO controls); % Activity (test inhibitor)=[PAR (test inhibitor)−PAR (0% activity)]/[PAR (100% activity)−PAR (0% activity)]; % Inhibition (test inhibitor)=100-% Activity (test inhibitor).

hERG channel = molecular target: T3, hERG channel (Homo sapiens, UniProt Q12809); experiment: hERG channel inhibition assay (patch-clamp, CHOhERG cells); type: cell-based
T3 construct: expressed in transfected cells; host or cells: CHO (Chinese hamster ovary)
Method: hERG Channel Inhibition Assay:
The hERG K^+ channels were cloned in humans and stably expressed in a CHO (Chinese hamster ovary) cell line. CHOhERG cells were used for patch-clamp (voltage-clamp, whole-cell) experiments. Cells were stimulated by a voltage pattern to activate hERG channels and conduct IKhERG currents (rapid delayed outward rectifier potassium current of the hERG channel). After the cells were stabilized for a few minutes, the amplitude and kinetics of IKhERG were recorded at a stimulation frequency of 0.1 Hz, (6 bpm). Thereafter, the test compound was added to the preparation at increasing concentrations. For each concentration, an attempt was made to reach a steady-state effect, usually, this was achieved within 3-10 min at which time the next highest concentration was applied. The amplitude and kinetics of IKhERG are recorded in each concentration of the drug which were compared to the control values (taken as 100%). (references: Redfern W S, Carlsson L, Davis A S, Lynch W G, MacKenzie I, Palethorpe S, Siegl P K, Strang I, Sullivan A T, Wallis R, Camm A J, Hammond T G. 2003; Relationships between preclinical cardiac electrophysiology, clinical QT interval prolongation and torsade de pointes for a broad range of drugs: evidence for a provisional safety margin in drug development. Cardiovasc. Res. 58:32-45, Sanguinetti M C, Tristani-Firouzi M. 2006; hERG potassium channels and cardiac arrhythmia. Nature 440:463-469, Webster R, Leishman D, Walker D. 2002; Towards a drug concentration effect relationship for QT prolongation and torsades de pointes. Curr. Opin. Drug Discov. Devel. 5:116-26).

CYP2C9 = molecular target: T4, CYP2C9 (Homo sapiens, UniProt P11712); experiment: CYP inhibition assay in human liver microsome, CYP2C9; type: in vitro ADME; conditions: human, human liver microsomes, probe diclofenac 5 μM, substrate diclofenac 5 μM, first value of 2C9/2D6/3A4
T4 construct: tissue BD-Gentest 452117; host or cells: human liver microsomes
Method: as §1, §2, §3, §4, §5

T3 sequence (Q12809 whole entry): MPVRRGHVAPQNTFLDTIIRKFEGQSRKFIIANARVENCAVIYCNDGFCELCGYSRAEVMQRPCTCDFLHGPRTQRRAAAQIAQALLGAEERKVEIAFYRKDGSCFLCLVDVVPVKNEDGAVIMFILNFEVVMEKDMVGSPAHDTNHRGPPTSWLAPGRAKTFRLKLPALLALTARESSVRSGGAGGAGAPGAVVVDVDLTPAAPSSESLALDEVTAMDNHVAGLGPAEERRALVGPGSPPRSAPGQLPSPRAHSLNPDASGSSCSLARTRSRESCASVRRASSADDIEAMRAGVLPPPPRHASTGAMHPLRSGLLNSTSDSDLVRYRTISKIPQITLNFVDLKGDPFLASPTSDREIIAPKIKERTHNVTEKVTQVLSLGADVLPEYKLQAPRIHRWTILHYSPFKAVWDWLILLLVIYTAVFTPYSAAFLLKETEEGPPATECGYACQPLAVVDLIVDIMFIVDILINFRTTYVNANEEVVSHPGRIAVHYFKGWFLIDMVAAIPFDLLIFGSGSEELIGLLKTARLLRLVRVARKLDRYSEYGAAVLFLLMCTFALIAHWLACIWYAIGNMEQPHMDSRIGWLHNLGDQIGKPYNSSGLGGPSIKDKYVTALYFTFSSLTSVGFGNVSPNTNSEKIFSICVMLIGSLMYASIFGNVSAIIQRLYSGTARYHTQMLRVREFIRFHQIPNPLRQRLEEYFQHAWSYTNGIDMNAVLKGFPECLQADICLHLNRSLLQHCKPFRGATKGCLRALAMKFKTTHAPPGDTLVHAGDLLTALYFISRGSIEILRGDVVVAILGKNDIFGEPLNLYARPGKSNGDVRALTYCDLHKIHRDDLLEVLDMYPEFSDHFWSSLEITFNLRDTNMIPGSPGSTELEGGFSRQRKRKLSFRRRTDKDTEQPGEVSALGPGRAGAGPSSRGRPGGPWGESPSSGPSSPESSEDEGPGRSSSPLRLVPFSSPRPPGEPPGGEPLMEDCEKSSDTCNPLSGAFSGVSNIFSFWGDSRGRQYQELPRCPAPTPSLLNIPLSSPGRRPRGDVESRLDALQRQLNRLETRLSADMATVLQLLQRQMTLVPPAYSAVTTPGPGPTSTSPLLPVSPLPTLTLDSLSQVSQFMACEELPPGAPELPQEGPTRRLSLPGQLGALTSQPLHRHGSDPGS
T4 sequence (P11712 whole entry): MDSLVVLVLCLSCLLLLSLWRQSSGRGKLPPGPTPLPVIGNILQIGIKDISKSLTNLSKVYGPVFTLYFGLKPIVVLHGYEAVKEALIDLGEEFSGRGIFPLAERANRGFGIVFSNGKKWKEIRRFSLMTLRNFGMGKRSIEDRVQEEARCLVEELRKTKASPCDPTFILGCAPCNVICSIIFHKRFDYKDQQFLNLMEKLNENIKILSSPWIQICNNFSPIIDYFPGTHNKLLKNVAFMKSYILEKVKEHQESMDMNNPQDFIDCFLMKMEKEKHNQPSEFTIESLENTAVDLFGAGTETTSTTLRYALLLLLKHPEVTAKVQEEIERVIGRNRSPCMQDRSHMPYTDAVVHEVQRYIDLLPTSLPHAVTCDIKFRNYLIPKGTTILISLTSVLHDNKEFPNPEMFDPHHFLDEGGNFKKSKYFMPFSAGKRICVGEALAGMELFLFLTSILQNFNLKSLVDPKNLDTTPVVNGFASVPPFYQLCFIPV
T2 sequence (P08684 whole entry): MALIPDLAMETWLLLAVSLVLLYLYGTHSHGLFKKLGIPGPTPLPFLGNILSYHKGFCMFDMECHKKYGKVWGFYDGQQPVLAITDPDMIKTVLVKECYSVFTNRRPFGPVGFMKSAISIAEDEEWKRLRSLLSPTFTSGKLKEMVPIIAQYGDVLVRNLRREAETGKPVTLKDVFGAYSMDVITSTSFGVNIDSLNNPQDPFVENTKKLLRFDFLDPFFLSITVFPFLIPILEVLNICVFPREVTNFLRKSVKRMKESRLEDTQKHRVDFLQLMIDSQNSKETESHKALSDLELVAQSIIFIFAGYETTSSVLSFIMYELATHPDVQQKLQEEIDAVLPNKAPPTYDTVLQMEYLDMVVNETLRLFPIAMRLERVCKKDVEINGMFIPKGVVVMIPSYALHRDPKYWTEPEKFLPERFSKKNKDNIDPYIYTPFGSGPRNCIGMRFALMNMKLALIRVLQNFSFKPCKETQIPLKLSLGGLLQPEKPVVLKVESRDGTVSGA

inhibition at 5 min, 10 µM (CYP3A4): 5.5%
inhibition at 5 min, 10 µM (CYP2C9): 29.5%
SMILES: C[C@@H]1CN(c2ccc(C#N)c3ncccc23)C[C@H](CN2CCN(c3ccncc3)CC2)O1 [ER-888286, reference compound]
IC50 (hTLR9): > 2 µM
safety window (hERG IC20/TLR7/8/9 IC50) compared to the compounds of this invention (hERG channel; result in words): much narrower safety window
hERG IC20/TLR7 IC50 (hERG channel; safety ratio): 0.3
hERG IC20/TLR9 IC50 (hERG channel; safety ratio): 0.2
